Laboratory results as given in US9783573B2, “IAP antagonists” (BRISTOL-MYERS SQUIBB COMPANY, priority 2012, dated 2017).

Key:
[1] = target: His-BIR2-3 (125-356, C202A/C213G, XIAP) (Homo sapiens (Human), UniProt P98170, C202A/C213G); experiment: XIAP-BIR2-3 Dimeric SMAC Peptide Homogeneous Time Resolved Fluorescence (HTRF) Assay; assay type: binding; conditions: fluorescein labeled dimeric SMAC peptide
Description: D. XIAP-BIR2-3 Dimeric SMAC Peptide Homogeneous Time Resolved Fluorescence (HTRF) Assay
(§1) Assays were performed in black, flat-bottom, 384-well plates.

[2] = target: His-BIR3 (241-356, XIAP) (Homo sapiens (Human), UniProt P98170); experiment: XIAP-BIR3/SMAC Homogeneous Time Resolved Fluorescence (HTRF) Assay; assay type: binding; conditions: fluorescein labeled SMAC peptide
Description: B. XIAP-BIR3/SMAC Homogeneous Time Resolved Fluorescence (HTRF) Assay
as §1

CN[C@@H](C)C(=O)N[C@H](C(=O)N1C[C@@H](NC(=O)c2ccc(C(=O)Nc3ccc4c(c3)CN(C(=O)[C@@H](NC(=O)[C@H](C)NC)C(C)(C)SCC(=O)N3CCCCC3)[C@H](C(=O)N[C@@H]3CCCc5ccccc53)C4)cc2)C[C@H]1C(=O)N[C@@H]1CCCc2ccccc21)C(C)(C)C [Example 58, N^1-((3S,5S)-1-((S)-3,3-Dimethyl-2-((S)-2-(methylamino)propanamido)butanoyl)-5-(((R)-1,2,3,4-tetrahydronaphthalen-1-yl)carbamoyl)pyrrolidin-3-yl)-N^4—((S)-2-((R)-3-methyl-2-((S)-2-(methylamino)propanamido)-3-((2-oxo-2-(piperidin-1-yl)ethyl)thio)butanoyl)-3-(((R)-1,2,3,4-tetrahydronaphthalen-1-yl)carbamoyl)-1,2,3,4-tetrahydroisoquinolin-7-yl)terephthalamide]
IC50 [1]: 0.018 µM | IC50 [2]: 0.027 µM

CN[C@@H](C)C(=O)N[C@H](C(=O)N1C[C@@H](NC(=O)c2ccc(C(=O)Nc3ccc4c(c3)CN(C(=O)[C@@H](NC(=O)[C@H](C)NC)C(C)(C)SCC(=O)N(C)C)[C@H](C(=O)N[C@@H]3CCCc5ccccc53)C4)cc2)C[C@H]1C(=O)N[C@@H]1CCCc2ccccc21)C(C)(C)C [Example 64, N^1-((3S,5S)-1-((S)-3,3-Dimethyl-2-((S)-2-(methylamino)propanamido)butanoyl)-5-(((R)-1,2,3,4-tetrahydronaphthalen-1-yl)carbamoyl)pyrrolidin-3-yl)-N^4-((S)-2-((R)-3-((2-(dimethylamino)-2-oxoethyl)thio)-3-methyl-2-((S)-2-(methylamino)propanamido)butanoyl)-3-(((R)-1,2,3,4-tetrahydronaphthalen-1-yl)carbamoyl)-1,2,3,4-tetrahydroisoquinolin-7-yl)terephthalamide]
IC50 [1]: 0.01 µM | IC50 [2]: 0.014 µM

CN[C@@H](C)C(=O)N[C@H](C(=O)N1Cc2cc(C(=O)Nc3nc(C(=O)N[C@H]4C[C@@H](C(=O)N[C@@H]5CCCc6ccccc65)N(C(=O)[C@@H](NC(=O)[C@H](C)NC)C(C)(C)C)C4)co3)ccc2C[C@H]1C(=O)N[C@@H]1CCCc2ccccc21)C(C)(C)C [Example 22, (S)-2-((S)-3,3-Dimethyl-2-((S)-2-(methylamino)propanamido)butanoyl)-N^7-(4-(((3S,5S)-1-((S)-3,3-dimethyl-2-((S)-2-(methylamino)propanamido)butanoyl)-5-(((R)-1,2,3,4-tetrahydronaphthalen-1-yl)carbamoyl)pyrrolidin-3-yl)carbamoyl)oxazol-2-yl)-N^3-((R)-1,2,3,4-tetrahydronaphthalen-1-yl)-1,2,3,4-tetrahydroisoquinoline-3,7-dicarboxamide]
IC50 [1]: 0.004 µM | IC50 [2]: 0.014 µM

CN[C@@H](C)C(=O)N[C@H](C(=O)N1Cc2cc(NC(=O)c3cccc4c3ccn4C(=O)N[C@H]3C[C@@H](C(=O)N[C@@H]4CCCc5ccccc54)N(C(=O)[C@@H](NC(=O)[C@H](C)NC)C(C)(C)C)C3)ccc2C[C@H]1C(=O)N[C@@H]1CCCc2ccccc21)C(C)(C)C [Example 54, N^4-((S)-2-((S)-3,3-Dimethyl-2-((S)-2-(methylamino)propanamido)butanoyl)-3-(((R)-1,2,3,4-tetrahydronaphthalen-1-yl)carbamoyl)-1,2,3,4-tetrahydroisoquinolin-7-yl)-N^1-((3S,5S)-1-((S)-3,3-dimethyl-2-((S)-2-(methylamino)propanamido)butanoyl)-5-(((R)-1,2,3,4-tetrahydronaphthalen-1-yl)carbamoyl)pyrrolidin-3-yl)-1H-indole-1,4-dicarboxamide]
IC50 [1]: 0.021 µM | IC50 [2]: 0.076 µM

CN[C@@H](C)C(=O)N[C@H](C(=O)N1C[C@@H](NC(=O)c2ccc(C(=O)Nc3ccc4c(c3)CN(C(=O)[C@@H](NC(=O)[C@H](C)NC)C(C)(C)SCc3ncc(C(C)(C)C)o3)[C@H](C(=O)N[C@@H]3CCCc5ccccc53)C4)cc2)C[C@H]1C(=O)N[C@@H]1CCCc2ccccc21)C(C)(C)C [Example 68, N^1-((S)-2-((R)-3-(((5-(tert-Butyl)oxazol-2-yl)methyl)thio)-3-methyl-2-((S)-2-(methylamino)propanamido)butanoyl)-3-(((R)-1,2,3,4-tetrahydronaphthalen-1-yl)carbamoyl)-1,2,3,4-tetrahydroisoquinolin-7-yl)-N^4-((3S,5S)-1-((S)-3,3-dimethyl-2-((S)-2-(methylamino)propanamido)butanoyl)-5-(((R)-1,2,3,4-tetrahydronaphthalen-1-yl)carbamoyl)pyrrolidin-3-yl)terephthalamide]
IC50 [1]: 0.16 µM | IC50 [2]: 0.26 µM

CN[C@@H](C)C(=O)N[C@H](C(=O)N1C[C@@H](NC(=O)c2ccc(C(=O)Nc3ccc4c(c3)CN(C(=O)[C@@H](NC(=O)[C@H](C)NC)C(C)(C)SCCO)[C@H](C(=O)N[C@@H]3CCCc5ccccc53)C4)cc2)C[C@H]1C(=O)N[C@@H]1CCCc2ccccc21)C(C)(C)C [Example 67, N^1-((3S,5S)-1-((S)-3,3-Dimethyl-2-((S)-2-(methylamino)propanamido)butanoyl)-5-(((R)-1,2,3,4-tetrahydronaphthalen-1-yl)carbamoyl)pyrrolidin-3-yl)-N^4-((S)-2-((R)-3-((2-hydroxyethyl)thio)-3-methyl-2-((S)-2-(methylamino)propanamido)butanoyl)-3-(((R)-1,2,3,4-tetrahydronaphthalen-1-yl)carbamoyl)-1,2,3,4-tetrahydroisoquinolin-7-yl)terephthalamide]
IC50 [1]: 0.006 µM | IC50 [2]: 0.014 µM

CN[C@@H](C)C(=O)N[C@H](C(=O)N1C[C@@H](NC(=O)c2ccc(C(=O)Nc3ccc4c(c3)CN(C(=O)[C@@H](NC(=O)[C@H](C)NC)C(C)(C)SCC(=O)O)[C@H](C(=O)N[C@@H]3CCCc5ccccc53)C4)cc2)C[C@H]1C(=O)N[C@@H]1CCCc2ccccc21)C(C)(C)C [Example 57, 2-(((R)-4-((S)-7-(4-(((3S,5S)-1-((S)-3,3-Dimethyl-2-((S)-2-(methylamino)propanamido)butanoyl)-5-(((R)-1,2,3,4-tetrahydronaphthalen-1-yl)carbamoyl)pyrrolidin-3-yl)carbamoyl)benzamido)-3-(((R)-1,2,3,4-tetrahydronaphthalen-1-yl)carbamoyl)-3,4-dihydroisoquinolin-2(1H)-yl)-2-methyl-3-((S)-2-(methylamino)propanamido)-4-oxobutan-2-yl)thio)acetic acid]
IC50 [1]: 0.006 µM | IC50 [2]: 0.01 µM

CN[C@@H](C)C(=O)N[C@H](C(=O)N1Cc2cc(NC(=O)c3cccc4c3ccn4C(=O)N[C@H]3C[C@@H](C(=O)N[C@@H]4CCCc5ccccc54)N(C(=O)[C@@H](NC(=O)[C@H](C)NC)C(C)(C)C)C3)ccc2C[C@H]1C(=O)N[C@H](C)c1ccccc1F)C(C)(C)C [Example 51]
IC50 [1]: 0.027 µM | IC50 [2]: 0.054 µM

CN[C@@H](C)C(=O)N[C@H](C(=O)N1Cc2cc(C(=O)Nc3ccc4cc(C(=O)N[C@H]5C[C@@H](C(=O)N[C@@H]6CCCc7ccccc76)N(C(=O)[C@@H](NC(=O)[C@H](C)NC)C(C)(C)C)C5)[nH]c4c3)ccc2C[C@H]1C(=O)N[C@@H]1CCCc2ccccc21)C(C)(C)C [Example 24, (S)-2-((S)-3,3-Dimethyl-2-((S)-2-(methylamino)propanamido)butanoyl)-N^7-(2-(((3S,5S)-1-((S)-3,3-dimethyl-2-((S)-2-(methylamino)propanamido)butanoyl)-5-(((R)-1,2,3,4-tetrahydronaphthalen-1-yl)carbamoyl)pyrrolidin-3-yl)carbamoyl)-1H-indol-6-yl)-N^3-((R)-1,2,3,4-tetrahydronaphthalen-1-yl)-1,2,3,4-tetrahydroisoquinoline-3,7-dicarboxamide]
IC50 [1]: 0.033 µM | IC50 [2]: 0.093 µM

CN[C@@H](C)C(=O)N[C@H](C(=O)N1Cc2cc(C(=O)Nc3ncc(C(=O)N[C@H]4C[C@@H](C(=O)N[C@@H]5CCCc6ccccc65)N(C(=O)[C@@H](NC(=O)[C@H](C)NC)C(C)(C)C)C4)s3)ccc2C[C@H]1C(=O)N[C@@H]1CCCc2ccccc21)C(C)(C)C [Example 21, (S)-2-((S)-3,3-Dimethyl-2-((S)-2-(methylamino)propanamido)butanoyl)-N^7-(5-(((3S,5S)-1-((S)-3,3-dimethyl-2-((S)-2-(methylamino)propanamido)butanoyl)-5-(((R)-1,2,3,4-tetrahydronaphthalen-1-yl)carbamoyl)pyrrolidin-3-yl)carbamoyl)thiazol-2-yl)-N^3-((R)-1,2,3,4-tetrahydronaphthalen-1-yl)-1,2,3,4-tetrahydroisoquinoline-3,7-dicarboxamide]
IC50 [1]: 0.006 µM | IC50 [2]: 0.017 µM

CN[C@@H](C)C(=O)N[C@H](C(=O)N1C[C@@H](NC(=O)c2ccc(C(=O)Nc3ccc4c(c3)CN(C(=O)[C@@H](NC(=O)[C@H](C)NC)C(C)(C)SCC(=O)N(C)Cc3cccc(F)c3)[C@H](C(=O)N[C@@H]3CCCc5ccccc53)C4)cc2)C[C@H]1C(=O)N[C@@H]1CCCc2ccccc21)C(C)(C)C [Example 62, N^1-((3S,5S)-1-((S)-3,3-Dimethyl-2-((S)-2-(methylamino)propanamido)butanoyl)-5-(((R)-1,2,3,4-tetrahydronaphthalen-1-yl)carbamoyl)pyrrolidin-3-yl)-N^4-((S)-2-((R)-3-((2-((3-fluorobenzyl)(methyl)amino)-2-oxoethyl)thio)-3-methyl-2-((S)-2-(methylamino)propanamido)butanoyl)-3-(((R)-1,2,3,4-tetrahydronaphthalen-1-yl)carbamoyl)-1,2,3,4-tetrahydroisoquinolin-7-yl)terephthalamide]
IC50 [1]: 0.058 µM | IC50 [2]: 0.073 µM
